Laboratory results as given in patent US12077503B2, “Substituted cyclic amides and their use as herbicides” (FMC CORPORATION, priority 2015, dated 2024).

Key:
Assay type in all cases: in vivo
[1] = tested on: barnyardgrass (Echinochloa crus-galli); experiment: Test A postemergence; settings: Echinochloa crus-galli, post-emergence, 240 h, postemergence, read-out: Barnyardgrass plant response rating; for pest or weed control at 125 g/ha: 125 g ai/ha, visual injury on 0 to 100 scale (0 no effect, 100 complete control), approx. 10 d; for pest or weed control at 500 g/ha: 500 g ai/ha, 0 to 100 scale, 0 is no effect, 100 is complete control
Summary of the method: (§1)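 Compounds were formulated in a non-phytotoxic solvent mixture with surfactant and applied as a preemergence directed soil spray after seeding, or sprayed postemergence over plants 2 to 10 cm tall at the one- to two-leaf stage. Evaluation after about 10 d compared treated with untreated controls, using a scale from 0 (no effect) to 100 (complete control).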

[2] = tested on: blackgrass (Alopecurus myosuroides); experiment: Test A postemergence; settings: Alopecurus myosuroides, post-emergence, 240 h, postemergence, read-out: Blackgrass plant response rating; for pest or weed control at 125 g/ha: 125 g ai/ha, visual injury on 0 to 100 scale (0 no effect, 100 complete control), approx. 10 d; for pest or weed control at 500 g/ha: 500 g ai/ha, 0 to 100 scale, 0 is no effect, 100 is complete control
Summary of the method: as §1

[3] = tested on: ragweed (common ragweed, Ambrosia elatior); experiment: Test A postemergence; settings: Ambrosia artemisiifolia, post-emergence, 240 h, postemergence, read-out: Ragweed plant response rating; for pest or weed control at 125 g/ha: 125 g ai/ha, visual injury on 0 to 100 scale (0 no effect, 100 complete control), approx. 10 d; for pest or weed control at 500 g/ha: 500 g ai/ha, 0 to 100 scale, 0 is no effect, 100 is complete control
Summary of the method: as §1

Kochia (Kochia scoparia) = experiment: Test A postemergence; settings: Bassia scoparia, post-emergence, 240 h, postemergence, read-out: Kochia plant response rating; for pest or weed control at 125 g/ha: 125 g ai/ha, visual injury on 0 to 100 scale (0 no effect, 100 complete control), approx. 10 d; for pest or weed control at 500 g/ha: 500 g ai/ha, 0 to 100 scale, 0 is no effect, 100 is complete control
Summary of the method: as §1

[4] = tested on: pigweed (Amaranthus retroflexus); experiment: Test A postemergence; settings: Amaranthus retroflexus, post-emergence, 240 h, postemergence, read-out: Pigweed plant response rating; for pest or weed control at 125 g/ha: 125 g ai/ha, visual injury on 0 to 100 scale (0 no effect, 100 complete control), approx. 10 d; for pest or weed control at 500 g/ha: 500 g ai/ha, 0 to 100 scale, 0 is no effect, 100 is complete control
Summary of the method: as §1

[5] = tested on: wheat (Triticum aestivum); experiment: Test A postemergence; settings: Triticum aestivum, post-emergence, 240 h, postemergence, read-out: Wheat plant response rating; for plant injury at 125 g/ha: 125 g ai/ha, visual injury on 0 to 100 scale (0 no effect, 100 complete control), approx. 10 d; for plant injury at 500 g/ha: 500 g ai/ha, 0 to 100 scale, 0 is no effect, 100 is complete control
Summary of the method: as §1

[6] = tested on: ryegrass, Italian (Italian ryegrass, Lolium multiflorum); experiment: Test A postemergence; settings: Lolium multiflorum, post-emergence, 240 h, postemergence, read-out: Ryegrass, Italian plant response rating; for pest or weed control at 125 g/ha: 125 g ai/ha, visual injury on 0 to 100 scale (0 no effect, 100 complete control), approx. 10 d; for pest or weed control at 500 g/ha: 500 g ai/ha, 0 to 100 scale, 0 is no effect, 100 is complete control
Summary of the method: as §1

[7] = tested on: Galium (catchweed bedstraw, Galium aparine); experiment: Test A postemergence; settings: Galium, post-emergence, 240 h, postemergence, read-out: Galium plant response rating; for pest or weed control at 125 g/ha: 125 g ai/ha, visual injury on 0 to 100 scale (0 no effect, 100 complete control), approx. 10 d; for pest or weed control at 500 g/ha: 500 g ai/ha, 0 to 100 scale, 0 is no effect, 100 is complete control
Summary of the method: as §1

corn (Zea mays) = experiment: Test A postemergence; settings: Zea mays, post-emergence, 240 h, postemergence, read-out: Corn plant response rating; for plant injury at 125 g/ha: 125 g ai/ha, visual injury on 0 to 100 scale (0 no effect, 100 complete control), approx. 10 d; for plant injury at 500 g/ha: 500 g ai/ha, 0 to 100 scale, 0 is no effect, 100 is complete control
Summary of the method: as §1

[8] = tested on: giant foxtail (Setaria faberii); experiment: Test A postemergence; settings: Setaria faberi, post-emergence, 240 h, postemergence, read-out: Foxtail, Giant plant response rating; for pest or weed control at 125 g/ha: 125 g ai/ha, visual injury on 0 to 100 scale (0 no effect, 100 complete control), approx. 10 d; for pest or weed control at 500 g/ha: 500 g ai/ha, 0 to 100 scale, 0 is no effect, 100 is complete control
Summary of the method: as §1

[9] = tested on: barnyardgrass (Echinochloa crus-galli); experiment: Test B flooded paddy test; settings: Echinochloa crus-galli, 250 g ai/ha, Flood; 0 to 100 scale where 0 is no effect and 100 is complete control; read-out: Barnyardgrass plant response rating
Summary of the method: (§2)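 Evaluation by eye, against controls, occurred 13–15 d post-treatment in a greenhouse, using a 0 (no effect) to 100 (complete control) scale. Application was into the paddy water, 3 cm deep over the soil, on 2-leaf plants.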

[10] = tested on: sedge, umbrella (small-flower umbrella sedge, Cyperus difformis); experiment: Test B flooded paddy test; settings: Cyperus difformis, 250 g ai/ha, Flood; 0 to 100 scale where 0 is no effect and 100 is complete control; read-out: Sedge, Umbrella plant response rating
Summary of the method: as §2

[11] = tested on: ducksalad (Heteranthera limosa); experiment: Test B flooded paddy test; settings: Heteranthera limosa, 250 g ai/ha, Flood; 0 to 100 scale where 0 is no effect and 100 is complete control; read-out: Ducksalad plant response rating
Summary of the method: as §2

rice (Oryra sativa) = experiment: Test B flooded paddy test; settings: Oryza sativa, 250 g ai/ha, Flood; 0 to 100 scale where 0 is no effect and 100 is complete control; read-out: Rice plant response rating
Summary of the method: as §2

[12] = tested on: ryegrass, Italian (Italian ryegrass, Lolium multiflorum); experiment: Test A preemergence; settings: Lolium multiflorum, pre-emergence, 240 h, preemergence, 0 to 100 scale where 0 is no effect and 100 is complete control, read-out: Ryegrass, Italian plant response rating; for pest or weed control at 125 g/ha: 125 g ai/ha, approx. 10 d; for pest or weed control at 500 g/ha: 500 g ai/ha
Summary of the method: as §1

| Structure (SMILES) | pest or weed control at 125 g/ha [1] [%] | pest or weed control at 500 g/ha [1] [%] | pest or weed control at 125 g/ha [2] [%] | pest or weed control at 500 g/ha [2] [%] | pest or weed control at 125 g/ha [3] [%] | pest or weed control at 500 g/ha [3] [%] | pest or weed control at 125 g/ha (Kochia (Kochia scoparia)) [%] | pest or weed control at 500 g/ha (Kochia (Kochia scoparia)) [%] | pest or weed control at 125 g/ha [4] [%] | pest or weed control at 500 g/ha [4] [%] | plant injury at 125 g/ha [5] [%] | plant injury at 500 g/ha [5] [%] | pest or weed control at 125 g/ha [6] [%] | pest or weed control at 500 g/ha [6] [%] | pest or weed control at 125 g/ha [7] [%] | pest or weed control at 500 g/ha [7] [%] | plant injury at 125 g/ha (corn (Zea mays)) [%] | plant injury at 500 g/ha (corn (Zea mays)) [%] | pest or weed control at 125 g/ha [8] [%] | pest or weed control at 500 g/ha [8] [%] | other results |
| --- | --- | --- | --- | --- | --- | --- | --- | --- | --- | --- | --- | --- | --- | --- | --- | --- | --- | --- | --- | --- | --- |
| CN1CC(c2cccc(Br)c2)C(C(=O)Nc2ccccc2F)C1=O (stereo not shown) [Compound 1132] | 90 | 90 | 30 | 50 | 0 | 0 | 0 | 0 | 0 | 0 | 30 | 70 | 0 | 30 | 0 | 30 | 60 | 80 | 80 | 90 | pest or weed control at 250 g/ha [9]: 60%; pest or weed control at 250 g/ha [10]: 40%; pest or weed control at 250 g/ha [11]: 90%; pest or weed control at 250 g/ha (rice (Oryra sativa)): 15%; pest or weed control at 125 g/ha [12]: 30%; pest or weed control at 500 g/ha [12]: 50% |
| O=C1NC[C@H](c2ccc(F)c(OC(F)(F)C(F)(F)Br)c2)[C@H]1C(=O)Nc1ccccc1F [Compound 1134] | 60 | 80 | 20 | 50 | 0 | 30 | 0 | 30 | 0 | 20 | 0 | 20 | 20 | 20 | 20 | 70 | 20 | 20 | 30 | 80 | pest or weed control at 250 g/ha [9]: 0%; pest or weed control at 250 g/ha [10]: 0%; pest or weed control at 250 g/ha [11]: 0%; pest or weed control at 250 g/ha (rice (Oryra sativa)): 0%; pest or weed control at 125 g/ha [12]: 0%; pest or weed control at 500 g/ha [12]: 40% |
